PubChem BioAssay (NCI)
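Tested at 5 concentrations; 48 h exposure; 96-well plates; endpoints linearly interpolated, else capped at highest concentration. The concentration for 50% growth inhibition is given as GI50. TGI marks complete inhibition of growth.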

Key:
Assay in all cases: NCI-60 cell line screen, 48 h
HCT-15 colon = system: HCT-15 colon
SK-MEL-5 melanoma = system: SK-MEL-5 melanoma
HCT-116 colon = system: HCT-116 colon
NCI-H23 lung = system: NCI-H23 lung
LOX IMVI melanoma = system: LOX IMVI melanoma
A549 NSCLC = system: A549 NSCLC
K-562 leukemia = system: K-562 leukemia
M14 melanoma = system: M14 melanoma
CAKI-1 renal = system: CAKI-1 renal
TK-10 renal = system: TK-10 renal
SF-295 CNS = system: SF-295 CNS
EKVX NSCLC = system: EKVX NSCLC
NCI-H460 lung = system: NCI-H460 lung
HL-60(TB) leukemia = system: HL-60(TB) leukemia
SN12C renal = system: SN12C renal
SK-OV-3 ovarian = system: SK-OV-3 ovarian
PC-3 prostate = system: PC-3 prostate
MDA-MB-435 = system: MDA-MB-435
CCRF-CEM leukemia = system: CCRF-CEM leukemia
U251 CNS = system: U251 CNS
NCI-H522 lung = system: NCI-H522 lung
SF-539 CNS = system: SF-539 CNS
OVCAR-8 ovarian = system: OVCAR-8 ovarian
NCI-H226 lung = system: NCI-H226 lung
DU-145 prostate = system: DU-145 prostate
IGROV1 ovarian = system: IGROV1 ovarian
MCF7 breast = system: MCF7 breast
SF-268 CNS = system: SF-268 CNS
OVCAR-4 ovarian = system: OVCAR-4 ovarian
OVCAR-3 ovarian = system: OVCAR-3 ovarian
ACHN renal = system: ACHN renal
NCI/ADR-RES ovarian = system: NCI/ADR-RES ovarian
SR leukemia = system: SR leukemia
MDA-MB-231 breast = system: MDA-MB-231 breast
786-0 renal = system: 786-0 renal
HT29 colon = system: HT29 colon
MALME-3M melanoma = system: MALME-3M melanoma
SK-MEL-28 melanoma = system: SK-MEL-28 melanoma
SNB-75 CNS = system: SNB-75 CNS
BT-549 breast = system: BT-549 breast
HOP-62 NSCLC = system: HOP-62 NSCLC
COLO 205 colon = system: COLO 205 colon
KM12 colon = system: KM12 colon
MOLT-4 leukemia = system: MOLT-4 leukemia
OVCAR-5 ovarian = system: OVCAR-5 ovarian
SK-MEL-2 melanoma = system: SK-MEL-2 melanoma
RXF 393 renal = system: RXF 393 renal
HS 578T breast = system: HS 578T breast
HCC-2998 colon = system: HCC-2998 colon
SNB-19 CNS = system: SNB-19 CNS
UO-31 renal = system: UO-31 renal
UACC-62 melanoma = system: UACC-62 melanoma
UACC-257 melanoma = system: UACC-257 melanoma
SW-620 colon = system: SW-620 colon
T-47D breast = system: T-47D breast
HOP-92 NSCLC = system: HOP-92 NSCLC
A498 renal = system: A498 renal
RPMI-8226 leukemia = system: RPMI-8226 leukemia

## CCCN(CCC)c1ccc(CO)c(Cl)c1
HCT-15 colon
  GI50: 20.4 µM
  TGI: > 80.9 µM
SK-MEL-5 melanoma
  GI50: 12.9 µM
  TGI: 27.3 µM
HCT-116 colon
  GI50: 0.44 µM
  TGI: 7.88 µM
NCI-H23 lung
  GI50: 23.2 µM
  TGI: > 100 µM
LOX IMVI melanoma
  GI50: 30.4 µM
  TGI: > 100 µM
A549 NSCLC
  GI50: 7.2 µM
  TGI: > 63 µM
K-562 leukemia
  GI50: 6.21 µM
  TGI: 37.7 µM
M14 melanoma
  GI50: 37.5 µM
  TGI: 97.4 µM
CAKI-1 renal
  GI50: 5.77 µM
  TGI: 50.6 µM
TK-10 renal
  GI50: 0.223 µM
  TGI: 0.663 µM
SF-295 CNS
  GI50: 5.45 µM
  TGI: > 78.9 µM
EKVX NSCLC
  GI50: 18.2 µM
  TGI: 59 µM
NCI-H460 lung
  GI50: 2.13 µM
  TGI: 32.1 µM
HL-60(TB) leukemia
  GI50: 19.5 µM
  TGI: 44.6 µM
SN12C renal
  GI50: 39.2 µM
  TGI: > 100 µM
SK-OV-3 ovarian
  GI50: 31.3 µM
  TGI: > 100 µM
PC-3 prostate
  GI50: 22.8 µM
  TGI: 89.6 µM
MDA-MB-435
  GI50: 37.1 µM
  TGI: > 100 µM
CCRF-CEM leukemia
  GI50: 17.4 µM
  TGI: 51.7 µM
U251 CNS
  GI50: 10.3 µM
  TGI: > 100 µM
NCI-H522 lung
  GI50: 16.4 µM
  TGI: 38.9 µM
SF-539 CNS
  GI50: 40.2 µM
  TGI: > 100 µM
OVCAR-8 ovarian
  GI50: 34.9 µM
  TGI: > 100 µM
NCI-H226 lung
  GI50: 0.166 µM
  TGI: 0.419 µM
DU-145 prostate
  GI50: 52 µM
  TGI: > 100 µM
IGROV1 ovarian
  GI50: 0.401 µM
  TGI: 2.41 µM
MCF7 breast
  GI50: 1.23 µM
  TGI: 33 µM
SF-268 CNS
  GI50: 47.3 µM
  TGI: > 100 µM
OVCAR-4 ovarian
  GI50: 1.21 µM
  TGI: 7.79 µM
OVCAR-3 ovarian
  GI50: 1.62 µM
  TGI: 5.07 µM
ACHN renal
  GI50: 38.5 µM
  TGI: > 100 µM
NCI/ADR-RES ovarian
  GI50: 23.6 µM
  TGI: > 89.7 µM
SR leukemia
  GI50: 19.3 µM
  TGI: 45.9 µM
MDA-MB-231 breast
  GI50: 31.6 µM
  TGI: > 68.4 µM
786-0 renal
  GI50: 16.8 µM
  TGI: 45.6 µM
HT29 colon
  GI50: 9.75 µM
  TGI: > 52.4 µM
MALME-3M melanoma
  GI50: 29.1 µM
  TGI: > 78.5 µM
SK-MEL-28 melanoma
  GI50: 42.5 µM
  TGI: > 100 µM
SNB-75 CNS
  GI50: 25.8 µM
  TGI: > 96.7 µM
BT-549 breast
  GI50: 22 µM
  TGI: > 60.2 µM
HOP-62 NSCLC
  GI50: 8.25 µM
  TGI: > 100 µM
COLO 205 colon
  GI50: 3.5 µM
  TGI: 10.1 µM
KM12 colon
  GI50: 35 µM
  TGI: > 100 µM
MOLT-4 leukemia
  GI50: 23.3 µM
  TGI: 62.6 µM
OVCAR-5 ovarian
  GI50: 0.257 µM
  TGI: 0.718 µM
SK-MEL-2 melanoma
  GI50: 9.47 µM
  TGI: 33.9 µM
RXF 393 renal
  GI50: 7.37 µM
  TGI: 29.5 µM
HS 578T breast
  GI50: 25 µM
  TGI: > 91.9 µM
HCC-2998 colon
  GI50: 13.5 µM
  TGI: 48.2 µM
SNB-19 CNS
  GI50: > 63.8 µM
  TGI: > 100 µM
UO-31 renal
  GI50: 35.4 µM
  TGI: > 100 µM
UACC-62 melanoma
  GI50: 0.485 µM
  TGI: 4.79 µM
UACC-257 melanoma
  GI50: 0.352 µM
  TGI: 1.49 µM
SW-620 colon
  GI50: 6.41 µM
  TGI: > 100 µM
T-47D breast
  GI50: 0.459 µM
  TGI: 2.91 µM
HOP-92 NSCLC
  GI50: 9.43 µM
  TGI: 31.2 µM
A498 renal
  GI50: 0.117 µM
  TGI: 0.253 µM
RPMI-8226 leukemia
  GI50: 5.93 µM
  TGI: 28.9 µM
